We go through 34 compounds from ChEMBL document CHEMBL1201862, “PubChem BioAssay data set” (2004).

The structures appear in SMILES notation. Active and inactive are the calls of the source. Some results are limits rather than exact numbers.

The IC50 is the point on the concentration scale where inhibition reaches its midpoint. The AC50 is the concentration at which the activity in the assay is half-maximal. As usually defined, the EC50 is the concentration at which the effect is half-maximal.

Assay [1] is described as follows: microbe, parasite or virus in culture. The format is functional. Conditions: Mycobacterium tuberculosis.
The target in assay [2] is T1, Protein skinhead-1 (Caenorhabditis elegans, UniProt P34707).
T1 sequence (P34707 whole entry): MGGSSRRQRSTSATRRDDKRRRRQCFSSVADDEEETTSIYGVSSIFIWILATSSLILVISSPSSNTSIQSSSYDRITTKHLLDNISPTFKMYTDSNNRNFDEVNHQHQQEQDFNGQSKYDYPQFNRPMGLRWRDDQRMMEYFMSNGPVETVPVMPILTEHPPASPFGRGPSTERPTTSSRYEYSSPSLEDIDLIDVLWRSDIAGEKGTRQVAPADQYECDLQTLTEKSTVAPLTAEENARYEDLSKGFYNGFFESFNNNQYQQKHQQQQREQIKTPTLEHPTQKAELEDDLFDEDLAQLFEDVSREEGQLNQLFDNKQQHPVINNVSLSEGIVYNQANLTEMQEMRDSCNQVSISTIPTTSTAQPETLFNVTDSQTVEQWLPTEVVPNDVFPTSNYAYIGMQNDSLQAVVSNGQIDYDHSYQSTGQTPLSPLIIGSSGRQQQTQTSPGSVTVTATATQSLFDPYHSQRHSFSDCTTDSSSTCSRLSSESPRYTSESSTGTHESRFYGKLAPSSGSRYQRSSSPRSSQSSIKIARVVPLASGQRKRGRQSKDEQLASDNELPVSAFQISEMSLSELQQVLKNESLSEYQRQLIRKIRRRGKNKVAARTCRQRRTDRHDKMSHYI
Type of assay: functional.

For assay [3], the target named is FAD-linked sulfhydryl oxidase ALR (Homo sapiens, UniProt P55789). The experiment in a line: inhibitors of human ALR sulfhydryl oxidase, dose response, biochemical, H2O2 detection, luminescence, cherry-pick (AID 493248).
Assay [4] deals with T2, Heat shock factor protein 1 (Mus musculus, UniProt P38532).
T2 sequence (P38532 whole entry): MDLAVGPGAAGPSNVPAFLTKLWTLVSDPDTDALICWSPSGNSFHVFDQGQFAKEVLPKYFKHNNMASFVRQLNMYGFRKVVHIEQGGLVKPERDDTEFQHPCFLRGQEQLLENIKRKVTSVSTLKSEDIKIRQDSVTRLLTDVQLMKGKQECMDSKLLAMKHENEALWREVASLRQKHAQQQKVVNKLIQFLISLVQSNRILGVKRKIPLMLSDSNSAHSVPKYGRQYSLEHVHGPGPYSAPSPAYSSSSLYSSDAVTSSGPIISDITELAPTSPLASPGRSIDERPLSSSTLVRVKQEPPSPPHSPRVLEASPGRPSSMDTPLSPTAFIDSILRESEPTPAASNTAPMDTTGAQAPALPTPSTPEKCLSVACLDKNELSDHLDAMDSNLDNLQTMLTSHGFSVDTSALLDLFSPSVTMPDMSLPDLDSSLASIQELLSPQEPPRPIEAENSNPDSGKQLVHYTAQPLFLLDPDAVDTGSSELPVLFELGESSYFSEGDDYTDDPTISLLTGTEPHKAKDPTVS
The experiment in a line: HSF1 potentiators in luciferase reporter cells, confirmation, cell-based, NIH3T3, luminescence, dose retest (AID 435004).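 Also: stress induced by proteasome inhibitor MG132 added 30 min after compound; luciferase reporter driven by HSF1 response element in NIH3T3 cells; actives raise luminescence as potentiators of the MG132 stress response.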 Type of assay: functional. In general terms: A reporter such as luciferase makes a cellular process visible.

A short description of assay [5]: inhibitors of intracellular T. cruzi replication, confirmation, NIH3T3 host cells, beta-gal luminescence (AID 2044).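 Also: intracellular parasites grown in NIH/3T3 mouse fibroblasts as host cells; luminescent beta-galactosidase reporter signal from transgenic T. cruzi replicating inside host cells; inhibitors lower the luminescence signal.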 Type of assay: functional, cell-based.
The target in assay [6] is T3, Protein RecA (Mycobacterium tuberculosis, UniProt P9WHJ3).
T3 sequence (P9WHJ3 whole entry): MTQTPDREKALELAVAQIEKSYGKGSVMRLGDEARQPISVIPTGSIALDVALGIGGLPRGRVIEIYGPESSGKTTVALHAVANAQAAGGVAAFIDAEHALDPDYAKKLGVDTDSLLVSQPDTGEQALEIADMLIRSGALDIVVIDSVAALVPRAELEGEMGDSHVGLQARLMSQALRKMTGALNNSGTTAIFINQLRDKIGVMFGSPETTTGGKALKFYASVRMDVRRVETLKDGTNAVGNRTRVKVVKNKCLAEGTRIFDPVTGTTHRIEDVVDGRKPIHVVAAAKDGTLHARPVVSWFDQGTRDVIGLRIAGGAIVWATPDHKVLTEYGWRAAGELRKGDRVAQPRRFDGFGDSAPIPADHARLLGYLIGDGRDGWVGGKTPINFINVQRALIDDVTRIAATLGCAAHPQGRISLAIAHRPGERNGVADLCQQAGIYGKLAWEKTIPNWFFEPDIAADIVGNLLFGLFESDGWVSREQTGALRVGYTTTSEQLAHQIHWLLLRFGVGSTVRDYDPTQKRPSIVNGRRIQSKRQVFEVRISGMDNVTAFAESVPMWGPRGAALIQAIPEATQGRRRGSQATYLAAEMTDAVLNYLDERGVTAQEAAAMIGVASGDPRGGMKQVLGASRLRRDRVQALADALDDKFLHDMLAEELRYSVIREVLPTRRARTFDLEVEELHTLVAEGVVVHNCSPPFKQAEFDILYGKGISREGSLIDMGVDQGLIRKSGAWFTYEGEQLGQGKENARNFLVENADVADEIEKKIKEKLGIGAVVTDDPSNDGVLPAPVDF
The experiment in a line: Fluorescence Cell-Free Homogeneous Dose Retest to Identify Inhibitors of RecA-Intein Splicing Activity. [Related pubchem assays (depositor defined):AID2097, AID2223, AID489010, AID492950]. Type of assay: functional.

Assay [7] has as its target T4, Replicative DNA helicase DnaB (Mycobacterium tuberculosis, UniProt P9WMR3).
T4 sequence (P9WMR3 whole entry): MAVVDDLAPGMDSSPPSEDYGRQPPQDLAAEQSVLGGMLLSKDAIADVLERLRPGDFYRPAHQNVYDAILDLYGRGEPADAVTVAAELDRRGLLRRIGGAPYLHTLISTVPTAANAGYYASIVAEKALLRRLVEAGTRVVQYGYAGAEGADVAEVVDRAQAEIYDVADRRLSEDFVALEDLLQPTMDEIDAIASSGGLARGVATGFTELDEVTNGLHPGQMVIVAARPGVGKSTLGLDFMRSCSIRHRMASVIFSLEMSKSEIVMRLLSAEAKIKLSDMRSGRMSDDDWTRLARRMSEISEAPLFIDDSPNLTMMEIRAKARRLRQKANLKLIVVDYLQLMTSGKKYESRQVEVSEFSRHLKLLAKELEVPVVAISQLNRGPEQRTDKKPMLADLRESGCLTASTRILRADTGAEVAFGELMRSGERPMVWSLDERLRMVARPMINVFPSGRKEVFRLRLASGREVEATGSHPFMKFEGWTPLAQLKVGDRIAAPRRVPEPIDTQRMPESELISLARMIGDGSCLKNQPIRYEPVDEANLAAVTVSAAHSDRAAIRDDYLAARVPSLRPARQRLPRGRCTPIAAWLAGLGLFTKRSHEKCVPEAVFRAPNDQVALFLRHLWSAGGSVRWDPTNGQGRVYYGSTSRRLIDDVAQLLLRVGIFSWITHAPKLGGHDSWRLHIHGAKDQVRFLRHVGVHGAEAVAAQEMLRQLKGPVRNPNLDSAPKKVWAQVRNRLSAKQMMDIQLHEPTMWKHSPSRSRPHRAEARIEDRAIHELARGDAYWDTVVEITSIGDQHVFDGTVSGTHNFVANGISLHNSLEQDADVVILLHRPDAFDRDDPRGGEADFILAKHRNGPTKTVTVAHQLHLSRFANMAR
The experiment in a line: DnaB intein splicing inhibitors, dose response, biochemical, cell-free fluorescence (AID 449749). Type of assay: functional.

Assay [8] in a line: cytotoxicity toward NIH3T3 fibroblasts, dose response, counter-screen, cell-based, ATP luminescence, mouse fibroblasts (AID 2010).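 Also: cells exposed to compound for about 90 hours before reading.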 The format is functional.

FAD-linked sulfhydryl oxidase ALR, sequence (P55789 whole entry): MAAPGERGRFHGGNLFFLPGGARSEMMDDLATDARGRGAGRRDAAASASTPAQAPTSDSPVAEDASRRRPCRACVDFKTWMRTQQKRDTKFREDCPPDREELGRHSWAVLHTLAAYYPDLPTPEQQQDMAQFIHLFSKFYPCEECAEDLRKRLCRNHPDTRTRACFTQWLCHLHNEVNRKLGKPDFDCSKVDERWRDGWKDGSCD

For `CCOC(=O)CN=C(S)n1cnc(N)n1`, the CC50 in assay [1] was > 40 µM (active).

For `O=c1c2cc3c(cc2[nH]c(=S)n1Cc1ccco1)OCO3`, in assay [2], the IC50 is > 100 µM (inactive).

In the case of `Cc1nc(NC(=O)C2CC3CCCC(C2)C3=O)sc1C` (stereo unspecified), the IC50 in assay [2] is > 100 µM (inactive).

For the compound `CC(=O)N1CCN=C1SCc1c(F)cccc1Cl`, the AC50 in assay [3] is 0.631 µM (active).

Take `Cc1cc2ncn(C(=O)c3ccc(F)cc3)c2cc1C`: in assay [3], the AC50 was 5.34 µM (active).

On to `O=C1/C(=C\c2ccc(C(F)(F)F)cc2)CSc2sccc21`, for which the IC50 in assay [2] was 69.4 µM (inactive).

For `O=C(/C=C/Nc1ccccc1)c1ccccc1`, the concentration giving a half-maximal response (EC50) in assay [4] was > 260 µM (inconclusive). For the same compound, in assay [2], the IC50 is > 100 µM (inactive).

As to `Cc1c(NC(=O)CSc2ccc3c(c2)OCCO3)c(=O)n(-c2ccccc2)n1C`, the IC50 in assay [2] is > 100 µM (inactive).

For the compound `O=C(Nc1nc(-c2ccccc2)cs1)c1cccs1`, in assay [2], the IC50 is 59.9 µM (inactive).

For `CN(NC1CC(=O)N(c2ccccc2)C1=O)c1ccccc1` (stereo unspecified), in assay [3], the AC50 was 6.83 µM (active).

Regarding `Cc1ccc(S(=O)(=O)NN2C(=O)/C(=C/c3cccnc3)SC2=S)cc1`, in assay [3], the AC50 was 4.96 µM (active).

Take `COc1ccc(CNC(C)C(=O)Nc2ccc3ccccc3c2)cc1OC` (stereo unspecified): the IC50 in assay [2] is > 100 µM (inactive).

In the case of `O=C(c1cccc(-c2ccco2)c1)N1CCCC(N2CCN(c3ccc(F)cc3)CC2)C1` (stereo unspecified), in assay [1], the CC50 is > 40 µM (active).

In the case of `Fc1cccc(-c2csc(-c3ccno3)n2)c1`, in assay [2], the IC50 is > 100 µM (inactive).

For `COC(=O)c1ccccc1N=Nc1c(N)n[nH]c1N`, the AC50 in assay [3] is 6.65 µM (active).

Turning to `Clc1ccc(-c2cn3cccnc3n2)cc1Cl`, the IC50 in assay [2] is > 100 µM (inactive).

Consider `c1ccc(CN2CCC(=NNc3nc4ccccc4[nH]3)CC2)cc1`, for which, in assay [3], the AC50 was 2.31 µM (active).

For `Cc1cccc(-c2nc3c(c(SCC(=O)N4CCOCC4)n2)CCCC3)c1`, the IC50 in assay [2] was > 100 µM (inactive).

As for `O=S(=O)(Nc1ccc(N2CCCCC2)cc1)c1ccccc1F`, in assay [3], the AC50 is 2.08 µM (active).

For `COc1ccc(-c2cc(C(=O)Nc3c(C)n(C)n(-c4ccccc4)c3=O)c3ccccc3n2)c(OC)c1`, in assay [2], the IC50 was > 100 µM (inactive).

On to `Cc1ccc(N(CCC#N)C(=O)CCl)cc1C`, for which, in assay [1], the CC50 is 1.84 µM (active). The half-maximal effective concentration (EC50) in assay [5] is 3.59 µM (active); in assay [6] it was 5.7 µM (active); in assay [8], 4.81 µM (active). Also, the AC50 in assay [7] is 167 µM (active).

On to `CCCC(=O)N(CCN1CCOCC1)c1nc2c(OCC)cccc2s1`, for which the IC50 in assay [2] is > 100 µM (inactive).

`CC(C)CN1C(=O)NC(NS(=O)(=O)c2ccc(N)cc2)(C(F)(F)F)C1=O` (stereo unspecified): the concentration at half-maximal activity (AC50) in assay [3] is 0.73 µM (active).

On to `N#CCC(=O)Nc1ccc(C(=O)Nc2cccnc2)cc1`, for which, in assay [3], the AC50 is 0.87 µM (active).

Take `Cc1[nH]c(C)c(S(=O)(=O)NCc2ccc(N(C)C)cc2)c1C(=O)N1CCCC1`: in assay [3], the AC50 is 16.1 µM (active).

For `O=C(NCc1ccncc1)c1ccc(-c2ccc(F)c(F)c2)c2ccoc12`, the IC50 in assay [2] is 20.2 µM (active).

For `Cc1ccc(NC(=O)COC(=O)C2(C)CC2(Cl)Cl)cc1S(=O)(=O)N1CCOCC1` (stereo unspecified), the IC50 in assay [2] was > 100 µM (inactive).

For `CC/C(=C\c1ccc(Cl)cc1)c1ccncc1`, in assay [2], the IC50 was 13.5 µM (active).

In the case of `c1ccc(-c2cnc(-c3ccccc3)nn2)cc1`, the IC50 in assay [2] is 78.4 µM (inactive).

On to `CC1(Cc2ccc(OC(F)(F)F)cc2)C(=O)Nc2ccc(OC(F)(F)F)cc21` (stereo unspecified), for which the IC50 in assay [2] is 34.3 µM (active).

For `Cc1ccccc1-n1c(SCC(=O)N/N=C/c2c(C)nn(-c3ccccc3)c2C)nc2ccccc2c1=O`, the CC50 in assay [1] was > 40 µM (active). Also, the EC50 in assay [5] is 1.6 µM (active); in assay [8], > 60 µM (not active).

With `COc1ccc(C2C(C(=O)OC(C)C)=C(C)N=c3s/c(=C\c4cccs4)c(=O)n32)cc1` (stereo unspecified), the IC50 in assay [2] was > 100 µM (inactive).

Regarding `COc1cc(/C=N/N2C(C)CCCC2C)cc(Br)c1O` (stereo unspecified), the AC50 in assay [3] was 0.495 µM (active).

As for `CCCCCCCCCCC[C@@H](C[C@@H]1OC(=O)[C@H]1CCCCCC)OC(=O)[C@H](CC(C)C)NC=O` [ORLISTAT], in assay [1], the CC50 is 37.9 µM (active).
